Patent US8846654B2, “Therapeutic applications in the cardiovascular field of quinazolinedione derivatives” (Sanofi, priority 2009, dated 2014)

What follows are compounds tested on PDE8 (assay: PDE8 enzymatic assay equivalent to that described for PDE7). Details: not given.
Type: biochemical
Text: 2) Measurement of the Inhibitory Activity of the Compounds in Accordance with the Invention with Regard to PDE8

Compound | IC50 [nM]
COc1ccc(Cn2c(=O)c3cc(OC(CF)CF)ccc3n(C3CCN(C=O)CC3)c2=O)cc1OC [No. 11, 4-[3-(3,4-dimethoxybenzyl)-6-[2-fluoro-1-(fluoromethyl)ethoxy]-2,4-dioxo-3,4-dihydroquinazolin-1(2H)-yl]piperidine-1-carbaldehyde] | 140
N#Cc1cc(Cn2c(=O)c3cc(OC(CF)CF)ccc3n(C3CCN(C=O)CC3)c2=O)ccc1-c1ccccc1 [No. 294, 4-({6-[2-fluoro-1-(fluoromethyl)ethoxy]-1-(1-formylpiperidin-4-yl)-2,4-dioxo-1,4-dihydroquinazolin-3(2H)-yl}methyl)biphenyl-2-carbonitrile] | 15

What follows are compounds tested on Male C57B6 mice (assay: Murine model of myocardial infarction resulting from an ischemia-reperfusion episode). Details: 3 mg/kg intravenously 5 minutes before reperfusion; 45 min coronary occlusion, 24 hours of reperfusion; compared with the vehicle.
Type: in vivo
Experimental: 3) Evaluation of the Compounds in Accordance with the Invention in a Murine Model of Myocardial Infarction Resulting from an Ischemia-Reperfusion Episode
Male C57B6 mice (23-26 g) are anaesthetized (ketamine 1 g/kg+xylazine 0.02 g/kg, IP) and placed under respiratory assistance before being subjected to a thoracotomy targeted at exposing the heart. Cardiac ischemia is then induced by the transient ligation of the left coronary artery. After 45 minutes of coronary occlusion, the ligature is removed in order to make possible reperfusion of the region rendered ischemic. After closing the thorax and restoring the pleural cavity, the animals are placed in a revival cage.
Test compounds Nos 11, 56, 233 and 309 are administered 5 minutes before reperfusion intravenously at a dose of 3 mg/kg and compared with the vehicle (7.5% Cremophor RH40+22.5% glycofurol in a physiological serum solution).
After 24 hours of cardiac reperfusion, the animals are again anaesthetized (ketamine 1 g/kg+xylazine 0.02 g/kg, IP) before intravenously receiving sodium nitroprusside (1 mg/ml at 1 ml/min for 4 minutes) in order to dilate the coronary vasculature. The left coronary artery is religatured and a solution of Evans blue (3%, 200 to 300 μl) is injected by carotid retroperfusion in order to determine the region at ventricular risk. The heart is then removed and immersed in a saturated KCl solution in order to stop it in diastole. Transverse sections of 1 mm are produced, incubated in triphenyltetrazolium chloride (1% in PBS) at 37° C. for 2 minutes and then placed in formaldehyde (4%) overnight. The tetrazolium salt makes it possible to visualize the viable region within the region at risk. The surface area of the infarction with respect to the region at risk is determined by image analysis.

Compound | reduction of the size of the infarction, expressed with respect to the region at risk [%]
COc1ccc(Cn2c(=O)c3cc(OC(CF)CF)ccc3n(C3CCN(C=O)CC3)c2=O)cc1OC [No. 11, 4-[3-(3,4-dimethoxybenzyl)-6-[2-fluoro-1-(fluoromethyl)ethoxy]-2,4-dioxo-3,4-dihydroquinazolin-1(2H)-yl]piperidine-1-carbaldehyde] | 43
COc1cc(Cn2c(=O)c3cc(OC(CF)CF)ccc3n(C3CCN(C=O)CC3)c2=O)ccc1OC1CCCC1 [No. 56, 4-{3-[4-(cyclopentyloxy)-3-methoxybenzyl]-6-[2-fluoro-1-(fluoromethyl)ethoxy]-2,4-dioxo-3,4-dihydroquinazolin-1(2H)-yl}piperidine-1-carbaldehyde] | 33
COc1ccc(Cn2c(=O)c3cc(OC(CF)CF)c(F)cc3n(C3CCN(C=O)CC3)c2=O)cc1OC [No. 233, 4-[3-(3,4-dimethoxybenzyl)-7-fluoro-6-[2-fluoro-1-(fluoromethyl)ethoxy]-2,4-dioxo-3,4-dihydroquinazolin-1(2H)-yl]piperidine-1-carbaldehyde] | 40
COc1cc(Cn2c(=O)c3cc(OC(CF)CF)c(F)cc3n(C3CCN(C=O)CC3)c2=O)ccc1OCC1CC1 [No. 309, 4-{3-[4-(cyclopropylmethoxy)-3-methoxybenzyl]-7-fluoro-6-[2-fluoro-1-(fluoromethyl)ethoxy]-2,4-dioxo-3,4-dihydroquinazolin-1(2H)-yl}piperidine-1-carbaldehyde] | 32
